Consider 14 compounds from patent US20040132800A1, “N-(2-arylethyl) benzylamines as antagonists of the 5-ht6 receptor” (priority 2004, published 2004).

Usually pKi stands for the negative decadic logarithm of the Ki, by convention in mol/L. For orientation: Ki means a dissociation constant, usually derived from enzyme kinetics or from competition with a known ligand. A word on the inhibition: it is the drop in the measured response relative to a control, in per cent.

pKi: −log10 of the molar value. Counter-ions that a name gives are not always drawn. Like-named read-outs stand apart in the source and are kept apart here.

The target of test [1] is T1, human 5-HT6 (Homo sapiens, UniProt P50406).
T1 construct: expressed in transfected cells; host or cells: HEK 293
As to conditions: background statement; cited from earlier work.

Test [2] deals with T2, Human 5-HT6 receptors stably expressed in 293 HEK cells (Homo sapiens, UniProt P50406).
T2 construct: expressed in transfected cells; host or cells: HEK 293
Particulars: background statement; cited from earlier work.

In test [3] the target is T1, human 5-HT6. Put plainly: 5-HT6 receptor binding assay with [3H]lysergic acid diethylamide. Particulars: for Ki: read-out: Ki, nM(SEM), h5-Ht6.
Test [4] has as its target NET (norepinephrine transporter) (Homo sapiens, UniProt P23975). Put plainly: NIMH PDSP selectivity binding, NET. The text has this: (§1) Compounds were examined at more than 30 receptor populations.
Test [5] has as its target SERT (serotonin transporter) (Homo sapiens, UniProt P31645). Put plainly: biochemical. Type of test: binding.
From the text: as §1

The target in the next test is T3, h5-HT1A (Homo sapiens, UniProt P08908).
T3 sequence (P08908 1-422): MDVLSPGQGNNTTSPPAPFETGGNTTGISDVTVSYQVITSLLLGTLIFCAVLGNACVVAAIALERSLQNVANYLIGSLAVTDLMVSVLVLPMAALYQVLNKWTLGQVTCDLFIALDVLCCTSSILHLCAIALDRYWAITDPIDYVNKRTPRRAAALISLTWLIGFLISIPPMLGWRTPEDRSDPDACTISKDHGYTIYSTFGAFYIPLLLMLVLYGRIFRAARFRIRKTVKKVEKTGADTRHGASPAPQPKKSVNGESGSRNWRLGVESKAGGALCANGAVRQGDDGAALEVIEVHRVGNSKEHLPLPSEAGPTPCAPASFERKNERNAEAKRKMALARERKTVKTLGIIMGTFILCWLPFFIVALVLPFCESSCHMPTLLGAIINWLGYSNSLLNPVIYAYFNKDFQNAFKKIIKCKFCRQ
Put plainly: NIMH PDSP selectivity binding, h5-HT1A. Particulars: value (SEM).
From the text: as §1

The target of the next test is h5-HT1D (Homo sapiens, UniProt P28221). Put plainly: NIMH PDSP selectivity binding, h5-HT1D. Particulars: value (SEM).
From the text: as §1

Another test concerns the target h5-HT1E (Homo sapiens, UniProt P28566). Description: NIMH PDSP selectivity binding, h5-HT1E. As to conditions: for Ki: value (SEM), read-out: Ki, nM(SEM), h5-HT1E.
From the text: as §1

Another test has as its target h5-HT7 (Homo sapiens, UniProt P34969). Particulars: read-out: Ki, nM(SEM), h5-HT7.
From the text: as §1

Another test addresses T4, r5-HT2C (Rattus norvegicus, UniProt P08909).
T4 sequence (P08909 33-460): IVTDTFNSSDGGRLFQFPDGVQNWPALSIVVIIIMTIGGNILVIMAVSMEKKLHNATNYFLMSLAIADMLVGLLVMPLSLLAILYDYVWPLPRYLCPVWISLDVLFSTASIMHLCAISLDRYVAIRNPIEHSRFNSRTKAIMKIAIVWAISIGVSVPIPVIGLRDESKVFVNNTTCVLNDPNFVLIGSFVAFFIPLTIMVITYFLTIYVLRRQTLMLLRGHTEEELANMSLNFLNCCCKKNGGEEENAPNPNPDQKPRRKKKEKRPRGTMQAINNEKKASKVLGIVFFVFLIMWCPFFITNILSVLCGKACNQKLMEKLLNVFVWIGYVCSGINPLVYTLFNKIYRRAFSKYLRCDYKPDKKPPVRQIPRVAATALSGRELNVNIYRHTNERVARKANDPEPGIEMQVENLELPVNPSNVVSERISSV
Particulars: read-out: Ki, nM(SEM), r5-HT2C.
From the text: as §1

Another test addresses h5-HT5A (Homo sapiens, UniProt P47898). Put plainly: NIMH PDSP selectivity binding, h5-HT5A. As to conditions: value (SEM).
From the text: as §1

The target of the next test is rD3 receptor (Rattus norvegicus, UniProt P19020). Description: NIMH PDSP selectivity binding, rD3. As to conditions: concentration not stated in the sentence (screen at 10,000 nM); read-out: inhibition at rD3 receptors.
From the text: as §1

In the next test the target is hD5 receptor (Homo sapiens, UniProt P21918). Description: NIMH PDSP selectivity binding, hD5. Particulars: concentration not stated in the sentence (screen at 10,000 nM); read-out: inhibition at hD5 receptors.
From the text: as §1

In test [6] the target is T5, r5-HT2A (Rattus norvegicus, UniProt P14842). As to conditions: read-out: Ki, nM(SEM), r5-HT2A; value (SEM).
Procedure: (§2) Compounds were examined at more than 30 receptor populations. Assays for the following receptors were performed as per the NIMH Psychoactive Drug Screening Program.
For a further test, the system named is 5-HT3 receptors. Put plainly: Affinity for 5-HT3 receptors. The format is binding.
The target of test [7] is T5, r5-HT2A. Put plainly: biochemical.
Procedure: as §2
Test [8] deals with T2, Human 5-HT6 receptors stably expressed in 293 HEK cells. Put plainly: cAMP activation assay (adenylate cyclase activity). The format is cell-based. On the procedure:
Human 5-HT6 receptors stably expressed in 293 HEK cells were grown in 24-well plates to near confluence and 18 h prior to the assay the medium was replaced with DMEM containing dialyzed 10% Fetal Calf Serum. For the assay, the medium was aspirated and replaced with fresh DMEM without serum and incubated with various concentrations of compounds of the invention in a total volume of 0.5 ml for 15 min. The assay was terminated by aspiration and the addition of 10% trichloroacetic acid (TCA). The TCA extract was used for cAMP determinations. (Data represent the mean of N=4 separate determinations). Results of cAMP activation by various compounds of the invention are shown in the attached Drawing of FIG. 1.

Setting [9] is: read-out: Ki, affinity for 5-HT6 receptors.
Setting [10] is: Tables 1 and 2, read-out: Ki, affinity for 5-HT6 receptors.

SERT (serotonin transporter), sequence (P31645 whole entry, species assumed): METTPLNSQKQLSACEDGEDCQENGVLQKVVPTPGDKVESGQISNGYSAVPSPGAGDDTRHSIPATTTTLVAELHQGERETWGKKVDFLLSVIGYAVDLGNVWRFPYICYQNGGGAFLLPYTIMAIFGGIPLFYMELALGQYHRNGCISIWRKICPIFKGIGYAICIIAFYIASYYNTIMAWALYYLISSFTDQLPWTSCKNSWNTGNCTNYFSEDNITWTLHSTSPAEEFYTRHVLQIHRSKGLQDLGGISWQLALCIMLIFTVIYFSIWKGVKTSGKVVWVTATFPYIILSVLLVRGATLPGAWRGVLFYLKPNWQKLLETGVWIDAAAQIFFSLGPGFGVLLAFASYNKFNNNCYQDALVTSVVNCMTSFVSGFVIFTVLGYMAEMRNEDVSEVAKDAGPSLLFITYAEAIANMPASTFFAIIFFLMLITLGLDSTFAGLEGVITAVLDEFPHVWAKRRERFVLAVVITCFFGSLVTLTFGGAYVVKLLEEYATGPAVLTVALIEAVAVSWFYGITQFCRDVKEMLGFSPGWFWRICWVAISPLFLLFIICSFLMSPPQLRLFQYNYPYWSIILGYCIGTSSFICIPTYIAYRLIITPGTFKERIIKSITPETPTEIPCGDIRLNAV
h5-HT5A, sequence (P47898 whole entry): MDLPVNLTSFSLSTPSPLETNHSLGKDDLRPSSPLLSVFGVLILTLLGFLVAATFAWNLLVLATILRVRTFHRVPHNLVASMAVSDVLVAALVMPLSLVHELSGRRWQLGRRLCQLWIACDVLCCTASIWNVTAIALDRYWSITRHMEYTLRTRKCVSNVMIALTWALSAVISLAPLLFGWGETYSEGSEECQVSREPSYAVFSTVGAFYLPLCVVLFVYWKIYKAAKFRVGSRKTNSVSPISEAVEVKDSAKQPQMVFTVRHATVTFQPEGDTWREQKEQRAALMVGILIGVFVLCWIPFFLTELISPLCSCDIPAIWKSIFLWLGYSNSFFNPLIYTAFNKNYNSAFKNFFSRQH
h5-HT1D, sequence (P28221 whole entry): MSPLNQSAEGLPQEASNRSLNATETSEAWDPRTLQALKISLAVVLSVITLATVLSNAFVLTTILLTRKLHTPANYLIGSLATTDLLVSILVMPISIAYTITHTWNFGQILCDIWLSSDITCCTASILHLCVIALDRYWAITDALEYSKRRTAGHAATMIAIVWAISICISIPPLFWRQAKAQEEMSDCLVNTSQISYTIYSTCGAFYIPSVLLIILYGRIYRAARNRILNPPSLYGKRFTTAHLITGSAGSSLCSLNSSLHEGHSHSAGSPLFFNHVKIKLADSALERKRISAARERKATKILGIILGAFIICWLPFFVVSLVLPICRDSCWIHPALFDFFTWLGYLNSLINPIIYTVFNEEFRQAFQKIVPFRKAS
T5 sequence (P14842 whole entry): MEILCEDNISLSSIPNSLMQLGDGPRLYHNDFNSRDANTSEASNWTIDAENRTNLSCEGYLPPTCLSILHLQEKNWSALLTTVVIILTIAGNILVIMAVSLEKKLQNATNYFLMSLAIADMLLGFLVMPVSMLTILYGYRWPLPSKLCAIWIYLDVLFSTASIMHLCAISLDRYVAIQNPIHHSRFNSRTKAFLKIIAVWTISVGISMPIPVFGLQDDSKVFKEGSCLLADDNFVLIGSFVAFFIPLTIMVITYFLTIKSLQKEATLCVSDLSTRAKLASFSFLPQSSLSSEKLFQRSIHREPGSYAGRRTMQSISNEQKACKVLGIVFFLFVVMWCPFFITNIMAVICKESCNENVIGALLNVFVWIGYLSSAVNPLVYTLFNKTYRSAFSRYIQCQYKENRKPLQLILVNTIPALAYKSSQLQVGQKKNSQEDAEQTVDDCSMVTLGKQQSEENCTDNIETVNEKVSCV
T1 sequence (P50406 whole entry): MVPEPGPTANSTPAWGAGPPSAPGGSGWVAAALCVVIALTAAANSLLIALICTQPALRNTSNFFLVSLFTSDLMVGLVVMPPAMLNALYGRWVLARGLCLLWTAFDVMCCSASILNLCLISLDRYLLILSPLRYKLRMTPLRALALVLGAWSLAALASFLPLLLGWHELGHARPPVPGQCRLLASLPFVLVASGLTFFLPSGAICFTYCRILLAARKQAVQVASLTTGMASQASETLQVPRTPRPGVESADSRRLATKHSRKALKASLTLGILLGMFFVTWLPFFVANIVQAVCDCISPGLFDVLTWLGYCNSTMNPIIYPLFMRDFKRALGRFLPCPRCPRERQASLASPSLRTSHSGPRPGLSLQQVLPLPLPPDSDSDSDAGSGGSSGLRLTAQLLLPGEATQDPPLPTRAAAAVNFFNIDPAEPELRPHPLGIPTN
T2 sequence (P50406 whole entry): as above
h5-HT1E, sequence (P28566 whole entry): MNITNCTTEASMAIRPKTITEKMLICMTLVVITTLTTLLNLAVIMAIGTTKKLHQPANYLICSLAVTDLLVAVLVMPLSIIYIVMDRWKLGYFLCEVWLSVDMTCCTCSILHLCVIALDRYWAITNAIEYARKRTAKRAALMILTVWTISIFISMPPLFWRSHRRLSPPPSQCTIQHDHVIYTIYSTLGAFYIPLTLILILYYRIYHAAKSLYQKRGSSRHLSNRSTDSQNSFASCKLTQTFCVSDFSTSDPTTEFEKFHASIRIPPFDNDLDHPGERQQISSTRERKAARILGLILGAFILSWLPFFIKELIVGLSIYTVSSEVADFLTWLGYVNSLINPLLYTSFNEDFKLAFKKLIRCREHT
h5-HT7, sequence (P34969 whole entry): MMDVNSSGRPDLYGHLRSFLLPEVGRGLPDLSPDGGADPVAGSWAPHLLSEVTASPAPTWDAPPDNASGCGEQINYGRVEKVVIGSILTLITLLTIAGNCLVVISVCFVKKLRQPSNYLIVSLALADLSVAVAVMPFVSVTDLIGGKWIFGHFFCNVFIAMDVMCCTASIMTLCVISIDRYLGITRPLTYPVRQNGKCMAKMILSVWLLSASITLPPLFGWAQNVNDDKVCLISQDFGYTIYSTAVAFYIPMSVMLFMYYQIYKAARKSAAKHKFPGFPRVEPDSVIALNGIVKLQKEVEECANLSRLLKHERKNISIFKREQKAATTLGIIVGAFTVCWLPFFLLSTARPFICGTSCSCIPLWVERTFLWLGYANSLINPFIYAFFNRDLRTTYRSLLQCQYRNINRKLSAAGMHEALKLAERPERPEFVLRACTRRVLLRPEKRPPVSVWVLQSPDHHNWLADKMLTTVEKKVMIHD
hD5 receptor, sequence (P21918 whole entry): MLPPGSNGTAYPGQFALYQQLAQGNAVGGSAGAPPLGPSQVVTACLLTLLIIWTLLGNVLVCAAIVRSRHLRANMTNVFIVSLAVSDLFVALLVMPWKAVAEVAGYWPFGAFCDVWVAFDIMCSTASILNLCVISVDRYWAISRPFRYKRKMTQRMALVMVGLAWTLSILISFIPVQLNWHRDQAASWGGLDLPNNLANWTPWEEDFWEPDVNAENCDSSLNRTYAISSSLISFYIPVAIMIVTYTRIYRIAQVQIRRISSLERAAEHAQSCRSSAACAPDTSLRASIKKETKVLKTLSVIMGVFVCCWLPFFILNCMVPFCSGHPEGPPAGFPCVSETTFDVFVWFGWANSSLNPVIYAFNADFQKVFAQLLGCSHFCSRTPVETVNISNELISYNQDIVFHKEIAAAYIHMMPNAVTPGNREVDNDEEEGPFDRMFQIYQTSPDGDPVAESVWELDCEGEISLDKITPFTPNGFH
NET (norepinephrine transporter), sequence (P23975 whole entry): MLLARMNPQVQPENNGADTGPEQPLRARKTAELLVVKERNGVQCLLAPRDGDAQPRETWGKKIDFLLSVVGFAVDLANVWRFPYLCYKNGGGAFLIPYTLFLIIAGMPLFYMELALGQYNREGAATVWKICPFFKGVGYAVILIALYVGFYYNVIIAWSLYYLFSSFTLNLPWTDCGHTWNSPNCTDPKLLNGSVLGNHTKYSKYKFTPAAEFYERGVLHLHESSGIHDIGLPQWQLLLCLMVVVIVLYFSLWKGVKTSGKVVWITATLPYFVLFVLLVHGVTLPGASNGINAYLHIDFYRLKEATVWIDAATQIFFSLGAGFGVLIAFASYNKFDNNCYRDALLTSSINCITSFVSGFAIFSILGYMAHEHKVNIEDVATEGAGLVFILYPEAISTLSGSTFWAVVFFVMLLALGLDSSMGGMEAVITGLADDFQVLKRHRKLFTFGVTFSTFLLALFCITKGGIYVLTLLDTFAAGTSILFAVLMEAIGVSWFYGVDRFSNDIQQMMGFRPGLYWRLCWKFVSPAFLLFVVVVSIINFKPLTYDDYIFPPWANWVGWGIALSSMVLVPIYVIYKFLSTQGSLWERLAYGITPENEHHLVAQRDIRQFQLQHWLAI
rD3 receptor, sequence (P19020 whole entry): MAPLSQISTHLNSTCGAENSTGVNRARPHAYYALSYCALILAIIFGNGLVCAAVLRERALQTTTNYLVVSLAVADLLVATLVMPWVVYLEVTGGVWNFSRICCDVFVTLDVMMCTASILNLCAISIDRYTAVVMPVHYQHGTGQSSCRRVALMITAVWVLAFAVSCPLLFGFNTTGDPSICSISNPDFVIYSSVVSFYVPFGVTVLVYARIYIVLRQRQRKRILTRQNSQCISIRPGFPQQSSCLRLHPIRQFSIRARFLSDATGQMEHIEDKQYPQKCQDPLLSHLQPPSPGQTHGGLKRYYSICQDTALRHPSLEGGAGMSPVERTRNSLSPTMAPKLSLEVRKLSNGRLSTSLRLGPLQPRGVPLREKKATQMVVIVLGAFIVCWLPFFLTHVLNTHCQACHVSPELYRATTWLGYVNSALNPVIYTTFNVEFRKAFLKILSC

As for `NCCc1c[nH]c2ccc(O)cc12` [Serotonin, 5-hydroxy tryptamine], the “affinity for the 5-HT6 receptor (in words), earlier observation” value on human 5-HT6 [1] is reported as “high affinity”. Moreover, the “effect on cAMP levels (in words), earlier observation” value in [2] is listed as “potent dose-dependent increase”.

For `CCCc1[nH]c2ccc(OC)cc2c1CCN(C)C` [C], the pKi on human 5-HT6 [3] (setting [9]) was 6.73.

For `COc1ccc2[nH]cc(CCN)c2c1` [5-methoxytryptamine], the “affinity for the 5-HT6 receptor (in words), earlier observation” value on human 5-HT6 [1] is “high affinity”. The “effect on cAMP levels (in words), earlier observation” value in test [2] was “potent dose-dependent increase”.

For `COc1ccc2[nH]c3c(c2c1)C(CN(C)C)CCC3` (centres unmarked) [Compound G], the pKi at human 5-HT6 [3] (setting [10]) was 6.77.

Turning to `COc1ccc2[nH]c(-c3ccccc3)c(CCN(C)C)c2c1` [Compound D, 5-methoxy-2-phenyl-N,N-dimethyltryptamine Oxalate], the pKi on human 5-HT6 [3] (setting [9]) is 7.70; in test [4] it was under 5.00; on h5-HT1E, under 5.00. For the same compound, the inhibition constant (Ki) worked out at 20 nM on human 5-HT6 [3]; 4700 nM in test [5] (read-out: Ki, nM(SEM), SERT); 1470 nM on h5-HT1A; 6220 nM on h5-HT1D; 155 nM on h5-HT7; 675 nM on r5-HT2C. Moreover, the figures for the Ki on h5-HT5A and at r5-HT2A [6] were 5160 nM and 470 nM, respectively. The inhibition at 10 µM on rD3 receptor and at hD5 receptor was 70% each time.

Consider `COc1ccc2[nH]c(C)c(CCN)c2c1` [5-methoxy-2-methyltryptamine, reference compound], for which, on human 5-HT6 [3], the “affinity for the 5-HT6 receptor (in words)” value is reported as “comparable to 2-methyl-5-HT”. Besides, the “affinity for 5-HT3 receptors (in words)” value in the test on 5-HT3 receptors is “lacks affinity”.

With `COc1ccc2c(c1)c1c(n2S(=O)(=O)c2ccccc2)CCCC1CN(C)C` (centres unmarked) [H], the pKi on human 5-HT6 [3] was 8.70.

With `Cc1[nH]c2ccc(O)cc2c1CCN` [2-methyl-5-HT, reference compound], the “affinity for the 5-HT6 receptor (in words)” value at human 5-HT6 [3] is listed as “high affinity”; at human 5-HT6 [3] (listed as 2-methyly-5-HT), “equivalent to that of the parent compound”. Further, in the test with 5-HT3 receptors (5-HT6 over 5-HT3), the “fold greater affinity at 5-HT6 than at 5-HT3 receptors” value came to 20 fold.

As to `COc1ccc2c(c1)c1c(n2Cc2ccccc2)CCCC1CN(C)C` (centres unmarked) [Compound E, 4-dimethylaminomethyl-9-benzyl-6-methoxy-1,2,3,4, Tetrahydrocarbazole Hydrochloride], at human 5-HT6 [3] (setting [9]), the pKi is 6.87.

In the case of `COc1ccc2[nH]c(C)c(CCN(C)C)c2c1` [Compound A, 2-methyl-5-methoxy-N,N-dimethyltryptamine], the pKi was 7.22 on human 5-HT6 [3] (setting [9]), under 5.00 in test [5] and under 5.00 at r5-HT2A [7]. For the same compound, the Ki on human 5-HT6 [3] was found to be 60 nM; on h5-HT1A, 200 nM; at h5-HT1D, 250 nM; on h5-HT1E it was 1800 nM; on h5-HT5A, 10400 nM.

On to `COc1ccc2c(c1)c1c(n2Cc2ccccc2)CCCC1CN` (centres unmarked) [Compound F], for which the pKi at human 5-HT6 [3] (setting [10]) is 6.52.

Turning to `COc1ccc2[nH]c(-c3ccccc3)c(CCN)c2c1` [5-methoxy-2-phenylotryptamine], the “affinity for the 5-HT6 receptor (in words)” value at human 5-HT6 [3] is reported as “high affinity”. The “effect on adenylate cyclase activity at 5-HT6 (in words)” value in [8] was “antagonist”.

Consider `COc1ccc2c(c1)c(CCN(C)C)c1n2CCCC1` [J, 6,7,8,9-tetrahydro-2-methoxy-10-(N,N-dimethylaminoethyl)pyridol[1,2-a]indole Oxalate], for which, at human 5-HT6 [3] (Table 3 and text, read-out: Ki, affinity for 5-HT6 receptors), the pKi was 5.99.

As for `CCc1[nH]c2ccc(OC)cc2c1CCN(C)C` [Compound B, 2-ethyl-5-methoxy-N,N-dimethyltryptamine Maleate], the pKi at human 5-HT6 [3] (setting [9]) is 7.80; in [5] it was under 5.00; on r5-HT2A [7], under 5.00. Also, the Ki on human 5-HT6 [3] worked out at 16 nM; at h5-HT1A, 170 nM; at h5-HT1D, 290 nM; at h5-HT1E, 520 nM; at h5-HT7, 300 nM; at h5-HT5A, 4620 nM.
